Experiment [1] has as its system acetylcholine receptor clustering. The following applies: NPL 16; cited from earlier work.
Experiment [2] relates to MuSK-type myasthenia gravis animal model. Description: Suppressing action on muscle weakness (grip strength) in MuSK type myasthenia gravis animal model (Test Example 2). The format is in vivo, mouse. To be noted: grip strength test on 5th day, female DBA/2 mice, FIG. 1. How it is done: Test Example 2: Suppressing Action on Muscle Weakness in MuSK Type Myasthenia Gravis Animal Model
(§1) In a MuSK-type myasthenia gravis animal model, in which the production of autoantibodies against endogenous MuSK was induced by immunizing with human recombinant MuSK protein, decreased grip strength was evaluated as a pathological index.
(§2) A grip strength measuring device (GPM-100B; Melquest) was used to measure the grip strength of the extremities.
(§3) Repeated daily oral administration of the test compound in the MuSK-type myasthenia gravis animal model was performed as follows.
Seven point five micrograms of human MuSK recombinant protein (9810-MK; R&D systems) prepared with Freund's Complete Adjuvant (263810; Becton, Dickinson and Company) was intradermally administered to the tail of 8-week-old female DBA/2 mice (Charles River Laboratories Japan). Two weeks later, 7.5 micrograms of human MuSK recombinant protein prepared with Freund's Incomplete Adjuvant (263910; Becton, Dickinson and Company) was intradermally administered to the tail to induce myasthenia gravis mice. A week later, antibody titers against human MuSK in serum and grip strengths by the grip strength test were measured, and the mice were divided into groups of 6 mice each based on the antibody titer value and subjected to administration of the test compound. […]

The test system is the same in experiment [3]. Description: Suppressing action on muscle weakness (grip strength) in MuSK type myasthenia gravis animal model (Test Example 3). It counts as in vivo, mouse. To be noted: grip strength test on 4th day, female DBA/2 mice, FIG. 2. How it is done: Test Example 3: Suppressing Action on Muscle Weakness in MuSK Type Myasthenia Gravis Animal Model
as §1, §2, §3
Seven point five micrograms of human MuSK recombinant protein (9810-MK; R&D systems) prepared with Freund's Complete Adjuvant (263810; Becton, Dickinson and Company) was intradermally administered to the tail of 8-week-old female DBA/2 mice (Charles River Laboratories Japan). Two weeks later, 7.5 micrograms of human MuSK recombinant protein prepared with Freund's Incomplete Adjuvant (263910; Becton, Dickinson and Company) was intradermally administered to the tail to induce myasthenia gravis mice. A week later, antibody titers against human MuSK in serum and grip strengths by the grip strength test were measured, and the mice were divided into groups of 6 mice each and subjected to administration of the test compound. The test compound was orally administered to the mice in the treatment group (3 and 10 mg/kg, suspended in 0.5% methylcellulose twice daily), and vehicle (0.5% methylcellulose) was used for the mice in the control group in place of the test compound. As a normal group, mice of the same age, same sex, and same strain were used that were not immunized with human recombinant MuSK protein. A grip strength test was performed after the administration in the morning of the 4th day.
The significance test between the normal group and the control group was performed by the Student-t test (*p<0.05). In addition, Dunnett's multiple comparison test was used between the control group and the test compound group (#p<0.05). A p-value less than 5% was regarded as significant in all the tests.

Experiment [4] has as its system acetylcholine receptor clustering in C2Cl2 cells. Description: Induction of acetylcholine receptor clustering in mouse myoblasts C2Cl2 cells (Test Example 1). It counts as cell-based. The following applies: Mus musculus; for Emax: Myoblast, read-out: Max; for EC50: Myotube. How it is done:
Test Example 1: Evaluation of the Induction of Acetylcholine Receptor Clustering in Mouse Myoblasts C2Cl2 Cells
Induction of acetylcholine receptor clustering by the test compound was evaluated by using fluorescently-labeled Bungarotoxin to image and quantify the acetylcholine receptor cluster region induced by the differentiation of myoblasts into myotubes, and measure the change in area. The following test method was optimized with reference to various reports including FEBS let., 586, 3111-3116 (2012). When a concentration response curve is obtained by plotting the logarithmic concentration of the test compound on the horizontal axis and the ratio of the area of acetylcholine receptor cluster region on the vertical axis, the inducing action of the test compound can be determined.
A concentration response curve as an index indicating acetylcholine receptor clustering inducing action of the test compound in mouse C2Cl2 cells was prepared. C2Cl2 cells (ATCC Number: CRL-1772) were seeded at about 5000 cells/well on a 384-well plate (354667; Corning) coated with type I collagen and allowed to incubate at 37 degrees Celsius overnight in DMEM+20% FBS+1% penicillin/streptomycin medium. The following day, the medium was removed and replaced with a differentiation medium containing DMEM+2% FBS+1% penicillin/streptomycin, and allowed to incubate at 37 degrees Celsius for 4 days. The test compound was dissolved in DMSO and added to a differentiation medium containing 0.1 ng/ml Agrin (550-AG-100; R&D systems) such that the final concentration was […] (3-fold serial dilution) or 0.00017 to 3.3 μM (3-fold serial dilution). The final concentration of DMSO was 0.3%. After the 4 days of incubation, the differentiation medium was replaced with a differentiation medium containing the test compound and 0.1 ng/ml Agrin or a differentiation medium containing 0.1 ng/ml Agrin or 10 ng/ml Agrin alone, and allowed to incubate at 37 degrees Celsius overnight. The next day, 10 μl of DMEM containing Bungarotoxin-Alexa488 (B13422; Life technologies) was added to the differentiation medium containing test compound and Agrin and Agrin alone so that the final concentration of Bungarotoxin-Alexa488 was 1 μg/ml, and was allowed to incubate at 37 degrees Celsius for 1 hour to label the acetylcholine receptor. After removing all the medium, 4% PFA was added to each well and allowed to incubate at room temperature for 10 minutes, then washed with PBS, and allowed to incubate at room temperature for 30 minutes in PBS containing 5% goat serum and 0.3% Triton X-100. After removing the PBS solution, PBS-Tween20 (28352; Thermo fisher scientific) containing Anti-Myosin Heavy Chain eFluor (registered trademark) 660 (50-6503-82; eBioscience) and DAPI (340-07971; Dojindo) was added to each well and allowed to incubate at room temperature for 1 hour to label the myotubes and nuclei. After washing three times with PBS-Tween20, the fluorescence was imaged using IN Cell Analyzer 6000 (GE Healthcare). […] The response of control group (1) was regarded as 0% and the response of the control group (2) was regarded as 100%. For quantification, the signal of only the acetylcholine receptor present in the myotube was used to eliminate non-specific fluorescence.
EC50 and Max value were used as indicators of activity in order to quantitatively evaluate the inducing action of the test compound on acetylcholine receptor clustering. EC50 value is a test compound concentration which indicates 50% in terms of the area of acetylcholine receptor cluster region compared to that of 10 ng/ml Agrin (regarded as 100%) in the concentration response curve. EC50 was calculated by nonlinear regression analysis from the concentration response curve using the area of the cluster region of the test compound as an index. Max value is the maximum response value. […]

The test system of experiment [5] is acetylcholine receptor clustering. To be noted: reported in NPL 15; cited from earlier work.
Where [6] appears, read: maximum response, area of acetylcholine receptor cluster region vs 10 ng/ml Agrin (100%), 0.1 ng/ml Agrin = 0%.
The mark [7] stands for this setting: C2Cl2 myotubes, with 0.1 ng/ml Agrin, concentration giving 50% of cluster area of 10 ng/ml Agrin (100%), read-out: EC50.

The EC50 is the concentration giving half of the maximal effect.

Structures are written as SMILES. Read-outs that look alike come from different tables or passages of the source.

Consider `C=C1CC[C@H](O)C/C1=C/C=C1\CCC[C@]2(C)[C@@H]([C@H](C)CCCC(C)C)CC[C@@H]12`, for which the “inducing action on acetylcholine receptor clustering in combination with Agrin” value in experiment [1] is on record as “promotes an inducing action on acetylcholine receptor clustering”.

As for `Cc1cc(-c2c(F)cc(S(=O)(=O)N3CC[C@H](F)C3)cc2F)nc2cc(C(=O)[O-])ccc12.[Na+]` [Example 2, sodium 2-{2,6-difluoro-4-[(3S)-3-fluoropyrrolidine-1-sulfonyl]phenyl}-4-methylquinoline-7-carboxylate], the “suppressing action on grip strength decrease” value in experiment [2] (10 mg/kg oral twice daily) and in experiment [2] (30 mg/kg oral twice daily) was “suppressing action on grip strength decrease” each time.

As to `Cc1c(F)c(-c2c(F)cc(S(=O)(=O)N3CCC(F)CC3)cc2F)nc2cc(C(=O)O)ccc12` [Example 18, 2-[2,6-difluoro-4-(4-fluoropiperidine-1-sulfonyl)phenyl]-3-fluoro-4-methylquinoline-7-carboxylic acid], the “suppressing action on grip strength decrease” value in experiment [3] (3 mg/kg oral twice daily) and in experiment [3] (10 mg/kg oral twice daily) was “suppressing action on grip strength decrease” in each case. Further, in experiment [4] (setting [6]), the Emax is 99.8%. In experiment [4] (setting [7]), the concentration for a half-maximal effect (EC50) was 3 nM.

Take `Cc1cc(-c2c(F)cc(S(=O)(=O)N3CCC(F)CC3)cc2F)nc2cc(C(=O)O)ccc12` [Example 19, 2-[2,6-difluoro-4-(4-fluoropiperidine-1-sulfonyl)phenyl]-4-methylquinoline-7-carboxylic acid]: the “suppressing action on grip strength decrease” value in experiment [3] (10 mg/kg oral twice daily) was “suppressing action on grip strength decrease”. In addition, the Emax in experiment [4] (setting [6]) was determined as 108%. The EC50 in experiment [4] (setting [7]) is 16 nM.

Turning to `Cc1cc(-c2ccc(S(=O)(=O)N3CC[C@H](F)C3)cc2F)nc2cc(C(=O)NCC3(O)CNC3)ccc12` [Example 65], the Emax in experiment [4] (setting [6]) worked out at 84%. Moreover, the EC50 in experiment [4] (setting [7]) stood at 53 nM.

As for `Cc1cc(-c2c(F)cc(S(=O)(=O)N3CC[C@H](F)C3)cc2F)cc2nc(N3CCNCC3)ccc12` [Example 66], the Emax in experiment [4] (setting [6]) turned out to be 88.4%. For the same compound, the EC50 in experiment [4] (setting [7]) stood at 10 nM.

Regarding `Cc1cc(-c2c(F)cc(S(=O)(=O)N3CC[C@H](F)C3)cc2F)cc2cc(C(=O)O)ccc12` [Example 67], in experiment [4], the Emax was found to be 94.3% and it took 15 nM to reach a half-maximal effect (EC50).

For `CC(C)(C)NCC(O)c1ccc(O)c(CO)c1` (centres unmarked) [salbutamol], in experiment [5], the “inducing action on acetylcholine receptor clustering” value was “has an inducing action on acetylcholine receptor clustering”.

These data come from patent US20250084062A1, “SUBSTITUTED QUINOLINE DERIVATIVE” (ASTELLAS PHARMA INC., priority 2021, published 2025).
